Assay results: US8748480B2, “Methods for treating opioid tolerance” (priority 2005, dated 2014)

Columns and labels:
Gβ1γ2 Lys57Ala = molecular target: T1, Gβ1γ2 Lys57Ala (Rattus norvegicus, UniProt P54311, K57A); experiment: Phage ELISA, b-βγ mutant Lys57Ala; type: binding; details: Gβ1γ2 Lys57Ala; phage displaying SIGK peptide
T1 construct: made in house; host or cells: Sf9 insect cells (baculovirus)
Source text: (§1) Wild-type Gβ1 and Gβ1 mutants were made in the baculovirus vector PDW464 which encodes a biotinylation site at a lysine upstream of the amino terminus of Gβ1 (Goubaeva, et al. (2003) supra). Mutants were generated by overlap extension PCR using standard protocols. The wild-type and mutant Gβ1 constructs consisted of a 20 amino acid biotin acceptor peptide (BAP) sequence fused in-frame with the amino-terminus of rat Gβ1 subunit. When coexpressed with biotin holoenzyme synthetase (BirA) in Sf9 cells, the Gβ1 subunit becomes covalently biotinylated in vivo at the Specific lysine acceptor residue in the BAP. Using this approach, 1-2 mg protein of purified protein can be obtained per liter of Sf9 insect cells. As 45 ng of protein is used in the phage ELISA assay, a single purification is sufficient for 10,000 to 30,000 binding assays.
(§2) Phage ELISA assays used to assess peptide binding to wild-type and mutant b-βγ were performed according to standard methods (Smrcka and Scott (2002) Methods Enzymol. 344:557-76). Briefly, 1 μg streptavidin was immobilized in the well of a […] overnight at 4° C. The wells were blocked with 100 μL of 2% bovine serum albumin (BSA) in Tris-buffered saline (TBS) for 1 hour at 4° C. followed by three washes of 1×TBS/0.5% TWEEN®. Forty μL of 25 nM bGβ1γ2 in TBS/0.5% TWEEN® was added to each well and incubated at 4° C. for 1.5 hour. The wells were washed, followed by the addition of 1×10^6 to 1×10^10 phage particles and incubated at 4° C. for 3 hours. The wells were then washed six times with TBS/0.5% TWEEN® followed by addition of 40 μL of 1:5000 dilution of anti-M13 antibody (Pharmacia, Uppsala, Sweden) and incubated at room temperature for 1 hour. The wells were washed, followed by the addition of 40 μL of (2,2′-Azino-bis(3-ethylbenzthiazoline)-6-sulfonic acid (ABTS) and the colorimetric reaction was monitored at 405 nm. Non-specific binding was subtracted for each reading.
(§3) Both assays were then carried out with Gβ1γ2 heterodimers containing mutations in the Gβ1 subunit.
(§4) The nine peptides were selected to represent the different consensus groups of peptides previously identified (See Scott et al. (2001) supra; Table 9) and to compare binding characteristics within and between consensus groups. […] As disclosed herein, the binding signal obtained in the ELISA assay was correlated to a loss in affinity by comparing the results to behavior of the peptide in a solution based assay. […] For the purposes of present disclosure, any substitution that decreased the binding to less than 20% of the wild-type binding was considered to be a critical binding contact for that peptide.

Gβ1γ2 His62Ala = molecular target: T2, Gβ1γ2 His62Ala (Rattus norvegicus, UniProt P54311, H62A); experiment: Phage ELISA, b-βγ mutant His62Ala; type: binding; details: phage displaying SIGK peptide
T2 construct: made in house; host or cells: Sf9 insect cells (baculovirus)
Source text: as §1
(§5) Phage ELISA assays used to assess peptide binding to wild-type and mutant b-βγ were performed according to standard methods (Smrcka and Scott (2002) Methods Enzymol. 344:557-76). Briefly, 1 μg streptavidin was immobilized in the well of a 96-six well plate overnight at 4° C. […] The wells were washed, followed by the addition of 40 μL of (2,2′-Azino-bis(3-ethylbenzthiazoline)-6-sulfonic acid (ABTS) and the colorimetric reaction was monitored at 405 nm. Non-specific binding was subtracted for each reading. […]

Gβ1γ2 Trp99Ala = molecular target: T3, Gβ1γ2 Trp99Ala (Rattus norvegicus, UniProt P54311, W99A); experiment: Phage ELISA, b-βγ mutant Trp99Ala; type: binding
T3 construct: made in house; host or cells: Sf9 insect cells (baculovirus)
Source text: as §1, §2, §3, §4

Gβ1γ2 Met101Ala = molecular target: T4, Gβ1γ2 Met101Ala (Rattus norvegicus, UniProt P54311, M101A); experiment: Phage ELISA, b-βγ mutant Met101Ala; type: binding; details: Gβ1γ2 Met101Ala; phage displaying SIGK peptide
T4 construct: made in house; host or cells: Sf9 insect cells (baculovirus)
Source text: as §1, §2, §3, §4

Gβ1γ2 Leu117Ala = molecular target: T5, Gβ1γ2 Leu117Ala (Rattus norvegicus, UniProt P54311, L117A); experiment: Phage ELISA, b-βγ mutant Leu117Ala; type: binding; details: Gβ1γ2 Leu117Ala; phage displaying SIGK peptide
T5 construct: made in house; host or cells: Sf9 insect cells (baculovirus)
Source text: as §1, §2, §3, §4

Gβ1γ2 Tyr145Ala = molecular target: T6, Gβ1γ2 Tyr145Ala (Rattus norvegicus, UniProt P54311, Y145A); experiment: Phage ELISA, b-βγ mutant Tyr145Ala; type: binding; details: Gβ1γ2 Tyr145Ala; phage displaying SIGK peptide
T6 construct: made in house; host or cells: Sf9 insect cells (baculovirus)
Source text: as §1, §2, §3, §4

Gβ1γ2 Met188Ala = molecular target: T7, Gβ1γ2 Met188Ala (Rattus norvegicus, UniProt P54311, M188A); experiment: Phage ELISA, b-βγ mutant Met188Ala; type: binding; details: Gβ1γ2 Met188Ala; phage displaying SIGK peptide
T7 construct: made in house; host or cells: Sf9 insect cells (baculovirus)
Source text: as §1, §2, §3, §4

Gβ1γ2 Asp246Ser = molecular target: T8, Gβ1γ2 Asp246Ser (Rattus norvegicus, UniProt P54311, D246S); experiment: Phage ELISA, b-βγ mutant Asp246Ser; type: binding; details: Gβ1γ2 Asp246Ser; phage displaying SIGK peptide
T8 construct: made in house; host or cells: Sf9 insect cells (baculovirus)
Source text: as §1, §2, §3, §4

Gβ1γ2 Phe292Ala = molecular target: T9, Gβ1γ2 Phe292Ala (Rattus norvegicus, UniProt P54311, F292A); experiment: Phage ELISA, b-βγ mutant Phe292Ala; type: binding; details: phage displaying SIGK peptide
T9 construct: made in house; host or cells: Sf9 insect cells (baculovirus)
Source text: as §1, §5

Gβ1γ2 His311Ala = molecular target: T10, Gβ1γ2 His311Ala (Rattus norvegicus, UniProt P54311, H311A); experiment: Phage ELISA, b-βγ mutant His311Ala; type: binding; details: Gβ1γ2 His311Ala; phage displaying SIGK peptide
T10 construct: made in house; host or cells: Sf9 insect cells (baculovirus)
Source text: as §1, §2, §3, §4

Gβ1γ2 Arg314Ala = molecular target: T11, Gβ1γ2 Arg314Ala (Rattus norvegicus, UniProt P54311, R314A); experiment: Phage ELISA, b-βγ mutant Arg314Ala; type: binding; details: Gβ1γ2 Arg314Ala; phage displaying SIGK peptide
T11 construct: made in house; host or cells: Sf9 insect cells (baculovirus)
Source text: as §1, §2, §3, §4

Gβ1γ2 Trp332Ala = molecular target: T12, Gβ1γ2 Trp332Ala (Rattus norvegicus, UniProt P54311, W332A); experiment: Phage ELISA, b-βγ mutant Trp332Ala; type: binding; details: Gβ1γ2 Trp332Ala; phage displaying SIGK peptide
T12 construct: made in house; host or cells: Sf9 insect cells (baculovirus)
Source text: as §1, §2, §3, §4

[1] = molecular target: T13, wild-type b-Gβ1γ2 (Fαi1 binding) (Rattus norvegicus, UniProt P54311); experiment: Flow cytometry competition for FITC-Gαi1 binding to immobilized wild-type b-βγ; details: Log [SIGK] M −7
T13 construct: made in house; host or cells: Sf9 insect cells (baculovirus) for b-βγ
Source text: as §1, with “BAP.” for “BAP. Using this approach, 1-2 mg protein of purified protein can be obtained per liter of Sf9 insect cells. As 45 ng of protein is used in the phage ELISA assay, a single purification is sufficient for 10,000 to 30,000 binding assays.”
(§6) Blocking of Gαi•Gβ1γ2 binding was assessed by simultaneously adding 200 pM FITC-Gαi with or without SICK to 50 pM immobilized b-βγ and measuring the amount of FITC-Gαi bound to the beads by flow cytometry according to standard methods (Ghosh, et al. (2003) supra; Sarvazyan, et al. (1998) J. Biol. Chem. 273:7934-40).
(§7) Fluorescein-labeled Gαi1 (Fαi1) was prepared in accordance with standard methods (Sarvazyan, et al. (1998) supra). Assays were used to determine peptide effects on Gα-Gβγ interactions included competition and dissociation assays (Ghosh, et al. (2003) supra). […] The bead-associated fluorescence was then recorded in a BD Biosciences FACSCALIBUR™ flow cytometer. Data was corrected for background fluorescence and fit with a sigmoid dose response curve using Graph Pad Prism 4. […]

[2] = molecular target: T14, b-βγ Trp332Ala (Fαi1 binding) (Rattus norvegicus, UniProt P54311, W332A); experiment: Flow cytometry competition for FITC-Gαi1 binding, b-βγ Trp332Ala; details: Log [SIGK] M −7
T14 construct: made in house; host or cells: Sf9 insect cells (baculovirus)
Source text: as §1, with “BAP.” for “BAP. Using this approach, 1-2 mg protein of purified protein can be obtained per liter of Sf9 insect cells. As 45 ng of protein is used in the phage ELISA assay, a single purification is sufficient for 10,000 to 30,000 binding assays.”
as §6, §7

[3] = molecular target: T15, b-βγ Arg314Ala (Fαi1 binding) (Rattus norvegicus, UniProt P54311, R314A); experiment: Flow cytometry competition for FITC-Gαi1 binding, b-βγ Arg314Ala; details: Log [SIGK] M −7
T15 construct: made in house; host or cells: Sf9 insect cells (baculovirus)
Source text: as §1, with “BAP.” for “BAP. Using this approach, 1-2 mg protein of purified protein can be obtained per liter of Sf9 insect cells. As 45 ng of protein is used in the phage ELISA assay, a single purification is sufficient for 10,000 to 30,000 binding assays.”
as §6, §7

CC[C@H](C)[C@H](NC(=O)[C@H](CCCCN)NC(=O)[C@H](Cc1ccccc1)NC(=O)[C@H](C)NC(=O)[C@H](CCCCN)NC(=O)CNC(=O)[C@@H](NC(=O)[C@@H](N)CO)[C@@H](C)CC)C(=O)N[C@@H](CC(C)C)C(=O)NCC(=O)N[C@@H](Cc1ccc(O)cc1)C(=O)N1CCC[C@H]1C(=O)N[C@@H](CC(=O)O)C(=O)N[C@@H](Cc1ccc(O)cc1)C(=O)N[C@@H](CC(=O)O)C(=O)O [SIGK]
% of Wild-Type Signal (mean ± SD) (Gβ1γ2 Lys57Ala): 18.6 ± 4.6%
% of Wild-Type Signal (mean ± SD) (Gβ1γ2 His62Ala): 111.2 ± 11.3%
% of Wild-Type Signal (mean ± SD) (Gβ1γ2 Trp99Ala; Gβ1γ2 Trp99Ala, phage displaying SIGK peptide): 66.0 ± 7.7%
decrease in affinity (Gβ1γ2 Trp99Ala; Trp99 mutation of Gβ1): 4 fold
% of Wild-Type Signal (mean ± SD) (Gβ1γ2 Met101Ala): 32.2 ± 15.5%
% of Wild-Type Signal (mean ± SD) (Gβ1γ2 Leu117Ala): 2.1 ± 2.4%
% of Wild-Type Signal (mean ± SD) (Gβ1γ2 Tyr145Ala): 0.8 ± 0.9%
% of Wild-Type Signal (mean ± SD) (Gβ1γ2 Met188Ala): 2.5 ± 3.7%
% of Wild-Type Signal (mean ± SD) (Gβ1γ2 Asp246Ser): 66.5 ± 7.5%
% of Wild-Type Signal (mean ± SD) (Gβ1γ2 Phe292Ala): 109.1 ± 21.4%
% of Wild-Type Signal (mean ± SD) (Gβ1γ2 His311Ala): 94.3 ± 18.9%
% of Wild-Type Signal (mean ± SD) (Gβ1γ2 Arg314Ala): 50.2 ± 5.0%
% of Wild-Type Signal (mean ± SD) (Gβ1γ2 Trp332Ala): 7.1 ± 3.7%
% Maximal Fα Binding (± SD) [1]: 100.0 ± 0.0%
% Maximal Fα Binding (± SD) [2]: 100.0 ± 0.0%
% Maximal Fα Binding (± SD) [3]: 100.0 ± 0.0%
